Reference: patent US8329746B2, “Method for treating osteoarthritis” (CaloSyn Pharma, Inc., priority 2005, dated 2012)

Test system: synovial lining cells
Conditions: human

| SMILES | concentration that must not be exceeded in compositions (harmful effects on synovial cells) [µg/mL] |
| --- | --- |
| COc1ccc(CCN(C)CCCC(C#N)(c2ccc(OC)c(OC)c2)C(C)C)cc1OC (centres unmarked) [verapamil] | ≤ 2000 |
| CCN(CC)CCNC(=O)c1ccc(N)cc1 [procainamide] | ≤ 2000 |
